According to patent EP4772500A1, “NOVEL ISOXAZOLE COMPOUND AS TM4SF5-SPECIFIC INHIBITOR AND USE THEREOF” (Seoul National University R&DB Foundation, priority 2023, dated 2025):

Test system: SNU449-TM4SF5 cells
Test: Western blotting of NK cell stimulatory ligands
Format: cell-based, human
Conditions: SNU449-TM4SF5, given concentration, 24 hours (FIG. 13c)
Method: Cell extracts were obtained from cells grown to a density of 70-80% without any treatment, or from cells treated with vehicle DMSO or drugs at the given concentrations for 24 hours. For the extract of hepatocytes or liver cancer cells, a lysis buffer (150 mM NaCl, 1% NP-40, 50 mM Tris-HCl, 0.25% sodium deoxycholate, pH 7.4) including a protease inhibitor cocktail (GenDEPOT) was used. In addition, after washing animal liver tissue twice with PBS, SDS, Na3VO4, and protease inhibitor cocktails (GenDEPOT) were added to a lysis buffer [50 mM Tris-HCl, pH 7.4, 1% NP40, 0.25% sodium deoxycholate, 150 mM NaCl, 1 mM EDTA (based on 500 ml)], followed by treatment at 4°C for 15 minutes. […] After quantification using BCA reagent (Thermo Scientific), a 4 × sample buffer [100% glycerol 4 ml, Tris-HCl, pH 6.8, 2.4 ml, SDS 0.8 g, Bromophenol blue 4 mg, betamercaptoethanol 0.4 ml, H2O 3.1 ml (based on 10 ml)] was added, followed by boiling at 100°C for 5 minutes. […]
After 24 hours, vehicle DMSO, drug ST-1-025, or ST-5-002 was treated at the given concentrations. […] (f) After treating NK92-EV or NK92-TM4SF5 cells with DMSO or drugs ST-2-001 (1 nM), ST-3-005 (10 nM or 1 µM), ST-5-001, or ST-5-002 (100 nM or 1 µM) for 24 hours, the expression of SLAMF7 expressed on the cell surface was analyzed through immunostaining using flow cytometry. […]

expression of the stimulatory ligands (MICA/B, SLAMF6, and SLAMF7): increased again
Structure (SMILES): COc1ccc(-c2cc(-c3ccc(N)cc3)no2)cc1 [ST-1-025, 4-(5-(4-methoxyphenyl)isoxazole-3-yl)aniline]
